Experiments:
HA1 adenosine receptor = target: T1, HA1 adenosine receptor (Homo sapiens, UniProt P30542); test: Human adenosine A1 receptor affinity (Ki hA1); assay type: binding; details: affinity to human adenosine A1 receptor
T1 sequence (P30542 1-326): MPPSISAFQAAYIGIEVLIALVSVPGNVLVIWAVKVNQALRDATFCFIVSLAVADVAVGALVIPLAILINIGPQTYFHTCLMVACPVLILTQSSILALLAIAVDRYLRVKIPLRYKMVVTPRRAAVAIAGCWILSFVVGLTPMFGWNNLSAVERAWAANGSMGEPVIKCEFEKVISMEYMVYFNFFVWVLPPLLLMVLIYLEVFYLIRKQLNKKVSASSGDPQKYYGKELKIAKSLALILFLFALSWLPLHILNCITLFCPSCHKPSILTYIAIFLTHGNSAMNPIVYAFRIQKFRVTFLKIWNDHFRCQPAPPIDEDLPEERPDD

[1] = target: T2, human adenosine A2A receptor (Homo sapiens, UniProt P29274); test: Human adenosine A2A receptor [3H]-SCH-58261 binding assay; details: for Ki: affinity to human adenosine A2A receptor, read-out: Ki HA2A; for selectivity (A1/A2a): calculated ratio of the affinity to the HA1 receptor to the HA2a receptor
T2 construct: expressed in transfected cells; host or cells: CHO cells, Semliki Forest virus expression system; membrane preparation
T2 sequence (P29274 whole entry): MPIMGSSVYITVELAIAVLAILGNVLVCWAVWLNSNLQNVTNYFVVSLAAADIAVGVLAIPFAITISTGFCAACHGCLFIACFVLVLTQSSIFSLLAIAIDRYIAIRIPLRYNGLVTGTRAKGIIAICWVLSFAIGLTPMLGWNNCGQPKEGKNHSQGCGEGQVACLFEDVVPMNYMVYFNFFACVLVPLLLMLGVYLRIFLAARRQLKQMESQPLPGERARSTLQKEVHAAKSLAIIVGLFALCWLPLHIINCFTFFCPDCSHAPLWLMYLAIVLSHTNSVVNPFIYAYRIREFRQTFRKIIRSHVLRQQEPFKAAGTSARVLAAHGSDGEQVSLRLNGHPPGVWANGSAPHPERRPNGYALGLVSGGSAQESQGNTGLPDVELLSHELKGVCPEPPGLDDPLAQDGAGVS

Ki (HA1 adenosine receptor) [nM] | Ki [1] [nM] | selectivity (A1/A2a) [1] | Compound
6100 | 233 | 26.2 | Nc1cc(C(=O)N2CCCC2)cc2nc(-c3ccoc3)nn12 [Example 99, (5-Amino-2-furan-3-yl-[1,2,4]triazolo[1,5-a]pyridin-7-yl)-pyrrolidin-1-yl-methanone]
529 | 15.5 | 34.1 | Cc1ccc(-c2nc3cc(C(=O)N(C)C4CCCCC4)cc(N)n3n2)o1 [Example 100, 5-Amino-2-(5-methyl-furan-2-yl)-[1,2,4]triazolo[1,5-a]pyridine-7-carboxylic acid cyclohexyl-methyl-amide]
701 | 33.3 | 21.1 | CCN(CC)C(=O)c1cc(N)n2nc(-c3ccccc3O)nc2c1 [Example 101, 5-Amino-2-(2-hydroxy-phenyl)-[1,2,4]triazolo[1,5-a]pyridine-7-carboxylic acid diethylamide]
978 | 57.6 | 17.0 | Nc1cc(C(=O)N2CCCCC2)cc2nc(-c3ccccc3O)nn12 [Example 102, [5-Amino-2-(2-hydroxy-phenyl)-[1,2,4]triazolo[1,5-a]pyridin-7-yl]-piperidin-1-yl-methanone]
3530 | 101 | 35.1 | Nc1cc(C(=O)N2CCCCC2)cc2nc(-c3nccs3)nn12 [Example 103, (5-Amino-2-thiazol-2-yl-[1,2,4]triazolo[1,5-a]pyridin-7-yl)-piperidin-1-yl-methanone]
223 | 4.9 | 46.0 | CCCCNC(=O)c1cc(N)n2nc(-c3ccco3)nc2c1 [Example 104, 5-Amino-2-furan-2-yl-[1,2,4]triazolo[1,5-a]pyridine-7-carboxylic acid butylamide]
2380 | 50.9 | 46.9 | CCN(CC)C(=O)c1cc(N)n2nc(-c3ccco3)nc2c1 [Example 105, 5-Amino-2-furan-2-yl-[1,2,4]triazolo[1,5-a]pyridine-7-carboxylic acid diethylamide]
6200 | 299 | 20.7 | Nc1cc(C(=O)N2CCOCC2)cc2nc(-c3ccco3)nn12 [Example 108, (5-Amino-2-furan-2-yl-[1,2,4]triazolo[1,5-a]pyridin-7-yl)-morpholin-4-yl-methanone]
58.7 | 2.9 | 20.2 | Nc1cc(C(=O)NCc2ccccc2Cl)cc2nc(-c3ccco3)nn12 [Example 109, 5-Amino-2-furan-2-yl-[1,2,4]triazolo[1,5-a]pyridine-7-carboxylic acid 2-chloro-benzylamide]
64.2 | 2.6 | 24.5 | Nc1cc(C(=O)NCc2ccccc2Br)cc2nc(-c3ccco3)nn12 [Example 110, 5-Amino-2-furan-2-yl-[1,2,4]triazolo[1,5-a]pyridine-7-carboxylic acid 2-bromo-benzylamide]
1220 | 45.2 | 27.1 | COc1cc(CNC(=O)c2cc(N)n3nc(-c4ccco4)nc3c2)cc(OC)c1OC [Example 111, 5-Amino-2-furan-2-yl-[1,2,4]triazolo[1,5-a]pyridine-7-carboxylic acid 3,4,5-trimethoxy-benzylamide]
2440 | 147 | 16.6 | COc1cc(CNC(=O)c2cc(N)n3nc(-c4ccc(C)o4)nc3c2)cc(OC)c1OC [Example 112, 5-Amino-2-(5-methyl-furan-2-yl)-[1,2,4]triazolo[1,5-a]pyridine-7-carboxylic acid 3,4,5-trimethoxy-benzylamide]
307 | 17.2 | 17.8 | Cc1ccc(-c2nc3cc(C(=O)N(C)C4CCCCC4)cc(N)n3n2)s1 [Example 113, 5-Amino-2-(5-methyl-thiophen-2-yl)-[1,2,4]triazolo[1,5-a]pyridine-7-carboxylic acid cyclohexyl-methyl-amide]
772 | 28.3 | 27.3 | Cc1ccc(-c2nc3cc(C(=O)N4CCCCC4)cc(N)n3n2)s1 [Example 114, [5-Amino-2-(5-methyl-thiophen-2-yl)-[1,2,4]triazolo[1,5-a]pyridin-7-yl]-piperidin-1-yl-methanone]
2920 | 222 | 13.2 | Cc1ccc(-c2nc3cc(C(=O)N4CCOCC4)cc(N)n3n2)s1 [Example 115, [5-Amino-2-(5-methyl-thiophen-2-yl)-[1,2,4]triazolo[1,5-a]pyridin-7-yl]-morpholin-4-yl-methanone]
170 | 15.3 | 11.1 | Cc1ccc(-c2nc3cc(C(=O)N(C)Cc4ccccc4)cc(N)n3n2)s1 [Example 116, 5-Amino-2-(5-methyl-thiophen-2-yl)-[1,2,4]triazolo[1,5-a]pyridine-7-carboxylic acid benzyl-methyl-amide]

Continued, compound first:

Compound | Ki (HA1 adenosine receptor) [nM] | Ki [1] [nM] | selectivity (A1/A2a) [1]
CCCNC(=O)c1cc(N)n2nc(-c3cccnc3)nc2c1 [Example 82, 5-Amino-2-pyridin-3-yl-[1,2,4]triazolo[1,5-a]pyridine-7-carboxylic acid propylamide] | 5850 | 309 | 18.9
Nc1cc(C(=O)NCc2ccccc2Cl)cc2nc(-c3ccc[nH]3)nn12 [Example 83, 5-Amino-2-(1H-pyrrol-2-yl)-[1,2,4]triazolo[1,5-a]pyridine-7-carboxylic acid 2-chloro-benzylamide] | 1500 | 130 | 11.6
CCCCN(Cc1ccccc1)C(=O)c1cc(N)n2nc(-c3ccc[nH]3)nc2c1 [Example 84, 5-Amino-2-(1H-pyrrol-2-yl)-[1,2,4]triazolo[1,5-a]pyridine-7-carboxylic acid benzyl-butyl-amide] | 4960 | 294 | 16.9
CCN(Cc1ccccc1F)C(=O)c1cc(N)n2nc(-c3ccc[nH]3)nc2c1 [Example 85, 5-Amino-2-(1H-pyrrol-2-yl)-[1,2,4]triazolo[1,5-a]pyridine-7-carboxylic acid ethyl-(2-fluoro-benzyl)-amide] | 1400 | 169 | 8.3
CC(C)N(Cc1ccccc1)C(=O)c1cc(N)n2nc(-c3cccnc3)nc2c1 [Example 86, 5-Amino-2-pyridin-3-yl-[1,2,4]triazolo[1,5-a]pyridine-7-carboxylic acid benzyl-isopropyl-amide] | 819 | 252 | 3.2
COc1ccccc1CNC(=O)c1cc(N)n2nc(-c3cccnc3)nc2c1 [Example 87, 5-Amino-2-pyridin-3-yl-[1,2,4]triazolo[1,5-a]pyridine-7-carboxylic acid 2-methoxy-benzylamide] | 1260 | 240 | 5.2
CCN(Cc1ccccc1)C(=O)c1cc(N)n2nc(-c3cccnc3)nc2c1 [Example 88, 5-Amino-2-pyridin-3-yl-[1,2,4]triazolo[1,5-a]pyridine-7-carboxylic acid benzyl-ethyl-amide] | 993 | 278 | 3.6
CCCCN(Cc1ccccc1)C(=O)c1cc(N)n2nc(-c3cccnc3)nc2c1 [Example 89, 5-Amino-2-pyridin-3-yl-[1,2,4]triazolo[1,5-a]pyridine-7-carboxylic acid benzyl-butyl-amide] | 900 | 174 | 5.2
Nc1cc(C(=O)N(CCc2ccccc2)Cc2ccccc2)cc2nc(-c3cccnc3)nn12 [Example 90, 5-Amino-2-pyridin-3-yl-[1,2,4]triazolo[1,5-a]pyridine-7-carboxylic acid benzyl-phenethyl-amide] | 239 | 144 | 1.7
CCN(Cc1ccccc1F)C(=O)c1cc(N)n2nc(-c3cccnc3)nc2c1 [Example 91, 5-Amino-2-pyridin-3-yl-[1,2,4]triazolo[1,5-a]pyridine-7-carboxylic acid ethyl-(2-fluoro-benzyl)-amide] | 815 | 144 | 5.7
COc1ccccc1CNC(=O)c1cc(N)n2nc(-c3ccc[nH]3)nc2c1 [Example 93, 5-Amino-2-(1H-pyrrol-2-yl)-[1,2,4]triazolo[1,5-a]pyridine-7-carboxylic acid 2-methoxy-benzylamide] | 4860 | 304 | 16.0
Nc1cc(C(=O)N(CCc2ccccc2)Cc2ccccc2)cc2nc(-c3ccc[nH]3)nn12 [Example 96, 5-Amino-2-(1H-pyrrol-2-yl)-[1,2,4]triazolo[1,5-a]pyridine-7-carboxylic acid benzyl-phenethyl-amide] | 729 | 217 | 3.4
COc1cc(CNC(=O)c2cc(N)n3nc(-c4nccs4)nc3c2)cc(OC)c1OC [Example 97, 5-Amino-2-thiazol-2-yl-[1,2,4]triazolo[1,5-a]pyridine-7-carboxylic acid 3,4,5-trimethoxy-benzylamide] | 2560 | 235 | 10.9
CCCCNC(=O)c1cc(N)n2nc(-c3ccoc3)nc2c1 [Example 98, 5-Amino-2-furan-3-yl-[1,2,4]triazolo[1,5-a]pyridine-7-carboxylic acid butylamide] | 767 | 50.5 | 15.2

— patent publication US6506772B1, “Substituted [1,2,4]triazolo[1,5a]pyridine derivatives with activity as adenosine receptor ligands” (Hoffmann-La Roche Inc., priority 2000, dated 2003)
